Peptide text beside a SMILES is read from it.
Assays:
Assay type in all cases: cell-based, human
single MCF7 cells = assay: Microfluidics chip single-cell experiment; conditions: single MCF7 cell in microfluidic chip, peptide 50 µM
Method: The AmphiArc2 peptide, the shortest peptide of the low micromolar active peptides, has a high hydrophobic moment (µH = 0.87) and a 180° arc of hydrophobic residues in an idealized helical structure (Fig. 1a). As determined by circular dichroism (CD) spectroscopy, the AmphiArc2 peptide is unstructured in pure water but adopts an alpha-helical structure in a hydrophobic environment (in 50% v/v water:2,2-trifluoroethanol, TFE) (Fig. 1b). […] To further investigate its membranolytic action, we observed the activity of AmphiArc2 on single MCF7 cells entrapped in a microfluidic chip.
The resultant sigmoidal curves were analyzed with the drc22 R package using a log-logistic model with 3 fixed parameters to obtain the HC50 values.
Microfluidics chip experiments
Single cell ACP action was observed on MCF7 cells entrapped in a microfluidic chip following the previously described methodology23. For visualization, cells were stained with calcein-AM at a 1 µM concentration. The calcein-AM penetrates into the cytosol of the cells and it is converted there by intracellular esterases to a fluorescent form that remains encapsulated in the cytosol. […]
in a microfuidic chip chamber after exposure to the AmphiArc2 peptide at a concentration of 50 µM. […] The loss of the cytosolic fluorescence corresponds to a permeabilization of the cell membrane. […]

Renal cancer cell lines = assay: NCI-60 screening, average of cancer type; conditions: for log GI50: Table 5, Renal, averaged over cell lines, 48 h, sulforhodamine B, 10^-4 to 10^-8 M; for Log GI (M): Table S3, Renal, averaged activity for the cancer type, log GI50
Method: (§1) NCI-60 screening procedure
(§2) The NCI-60 screening procedure was performed by the Developmental Therapeutics Program of the National Cancer Institute. The procedure was performed as previously described24 in 96-well microtiter plates. Each peptide was tested in a 5-concentration assay, starting at 10^-4 M and diluting 10-fold to the lowest 10^-8 M concentration. The peptides were incubated for 48 h and the cell concentration was assayed by using the sulforhodamine B assay25 and optical density measurements. The growth inhibition (GI50) value24, measures the growth inhibitory power of the drug agent. The GI50 value is the concentration of the test drug for which the condition in Eq. S1 is met, where T is the optical density of the test well after a 48-h exposure to the peptide, T0 the optical density before applying the peptide drug and C the control optical density of a well where no peptide was applied.

Breast cancer cell lines = assay: NCI-60 screening, average of cancer type; conditions: for log GI50: Table 5, Breast, averaged over cell lines, 48 h, sulforhodamine B, 10^-4 to 10^-8 M; for Log GI (M): Table S3, Breast, averaged activity for the cancer type, log GI50
Method: as §1, §2

Melanoma cell lines = assay: NCI-60 screening, average of cancer type; conditions: for log GI50: Table 5, Melanoma, averaged over cell lines, 48 h, sulforhodamine B, 10^-4 to 10^-8 M; for Log GI (M): Table S3, Melanoma, averaged activity for the cancer type, log GI50
Method: as §1, §2

Lung cancer cell lines = assay: NCI-60 screening, average of cancer type; conditions: for log GI50: Table 5, Lung, averaged over cell lines, 48 h, sulforhodamine B, 10^-4 to 10^-8 M; for Log GI (M): Table S3, Lung, averaged activity for the cancer type, log GI50
Method: as §1, §2

Colon cancer cell lines = assay: NCI-60 screening, average of cancer type; conditions: for log GI50: Table 5, Colon, averaged over cell lines, 48 h, sulforhodamine B, 10^-4 to 10^-8 M; for Log GI (M): Table S3, Colon, averaged activity for the cancer type, log GI50
Method: as §1, §2

CNS cancer cell lines = assay: NCI-60 screening, average of cancer type; conditions: for log GI50: Table 5, CNS, averaged over cell lines, 48 h, sulforhodamine B, 10^-4 to 10^-8 M; for Log GI (M): Table S3, CNS, averaged activity for the cancer type, log GI50
Method: as §1, §2

[1] = tested on: Prostate cancer cell lines; assay: NCI-60 screening, average of cancer type; conditions: for log GI50: Table 5, Prostate, averaged over cell lines, 48 h, sulforhodamine B, 10^-4 to 10^-8 M; for Log GI (M): Table S3, Prostate, averaged activity for the cancer type, log GI50
Method: as §1, §2

Leukemia cell lines = assay: NCI-60 screening, average of cancer type; conditions: for log GI50: Table 5, Leukemia, averaged over cell lines, 48 h, sulforhodamine B, 10^-4 to 10^-8 M; for Log GI (M): Table S3, Leukemia, averaged activity for the cancer type, log GI50
Method: as §1, §2

[2] = tested on: Ovarian cancer cell lines; assay: NCI-60 screening, average of cancer type; conditions: for log GI50: Table 5, Ovarian, averaged over cell lines, 48 h, sulforhodamine B, 10^-4 to 10^-8 M; for Log GI (M): Table S3, Ovarian, averaged activity for the cancer type, log GI50
Method: as §1, §2

SMILES	morphological changes in the cell membrane and leakage of the cytosolic components, time after initial contact with the peptide (single MCF7 cells; calcein-AM and anti-EpCAM stained, as early as) [seconds]	time after which the encapsulated dye had leaked out, membrane deformations and blebbing (single MCF7 cells; calcein-AM stained) [s]	log GI50 (Renal cancer cell lines) [M]	Log GI (M) (Renal cancer cell lines)	log GI50 (Breast cancer cell lines) [M]	Log GI (M) (Breast cancer cell lines)	log GI50 (Melanoma cell lines) [M]	Log GI (M) (Melanoma cell lines)	log GI50 (Lung cancer cell lines) [M]	Log GI (M) (Lung cancer cell lines)	log GI50 (Colon cancer cell lines) [M]	Log GI (M) (Colon cancer cell lines)	log GI50 (CNS cancer cell lines) [M]	Log GI (M) (CNS cancer cell lines)	log GI50 [1] [M]	Log GI (M) [1] [M]	log GI50 (Leukemia cell lines) [M]	Log GI (M) (Leukemia cell lines)	log GI50 [2] [M]	Log GI (M) [2] [M]
CC[C@H](C)[C@H](NC(=O)[C@H](CCCNC(=N)N)NC(=O)[C@H](Cc1c[nH]c2ccccc12)NC(=O)[C@@H](NC(=O)[C@H](CCCCN)NC(=O)[C@H](CCCCN)NC(=O)[C@@H](NC(=O)[C@@H](NC(=O)[C@@H](NC(=O)[C@H](CCCCN)NC(=O)[C@H](Cc1ccccc1)NC(=O)[C@H](CCCCN)NC(=O)[C@H](CCCCN)NC(=O)[C@H](Cc1ccccc1)NC(=O)[C@@H](NC(=O)[C@@H](N)CCCCN)[C@@H](C)CC)[C@@H](C)O)[C@@H](C)CC)[C@@H](C)CC)C(C)C)C(=O)N[C@@H](Cc1ccccc1)C(=O)NCC(=O)N[C@@H](CCCNC(=N)N)C(=O)N[C@@H](Cc1ccccc1)C(N)=O [AmphiArc2] (H-KIFKKFKTIIKKVWRIFGRF-NH2)	30	95	−5.7	-5.67	−5.6	-5.65	−5.6	-5.64	−5.6	-5.65	−5.6	-5.57	−5.6	-5.63	−5.7	-5.72	−5.5	-5.50	−5.6	-5.60
CC[C@H](C)[C@H](NC(=O)[C@H](CCCCN)NC(=O)[C@H](CCCCN)NC(=O)[C@@H](NC(=O)[C@@H](NC(=O)[C@@H](N)Cc1c[nH]cn1)[C@@H](C)CC)[C@@H](C)CC)C(=O)N[C@@H](CCCNC(=N)N)C(=O)N[C@H](C(=O)N[C@@H](Cc1c[nH]c2ccccc12)C(=O)N[C@@H](Cc1ccc(O)cc1)C(=O)N[C@@H](CCCNC(=N)N)C(=O)N[C@@H](CCCCN)C(=O)N[C@@H](C)C(=O)N[C@@H](Cc1c[nH]c2ccccc12)C(=O)N[C@@H](Cc1c[nH]cn1)C(=O)N[C@H](C(=O)N[C@@H](CC(C)C)C(=O)NCC(=O)N[C@@H](CCCCN)C(=O)N[C@H](C(N)=O)C(C)C)C(C)C)[C@@H](C)O [Off2] (H-HIIKKIRTWYRKAWHVLGKV-NH2)			−5.3	-5.28	−5.4	-5.36	−5.3	-5.33	−5.4	-5.37	−5.2	-5.24	−5.2	-5.21	−5.5	-5.46	−5.2	-5.17	−5.2	-5.17
